Source: ChEMBL document CHEMBL1201862, “PubChem BioAssay data set” (2004)
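Each compound was tested at five concentrations against cells in 96-well plates for 48 hours. At the GI50, growth is halved.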 Active and inactive are the calls of the source. Cut-off read from the data, not from the text of the source: active = GI50 up to about 1.1 µM and inactive = higher.

Legend:
Experiment in all cases: growth of human tumour cells (NCI), 48 h
786-0 = test system: 786-0
A498 = test system: A498
ACHN = test system: ACHN
CCRF-CEM = test system: CCRF-CEM
COLO 205 = test system: COLO 205
DLD-1 = test system: DLD-1
DU-145 = test system: DU-145
HCC 2998 = test system: HCC 2998
HCT-116 = test system: HCT-116
HCT-15 = test system: HCT-15
HL-60 = test system: HL-60
HOP-18 = test system: HOP-18
HOP-92 = test system: HOP-92
HT-29 = test system: HT-29
IGROV-1 = test system: IGROV-1
K562 = test system: K562
KM-20L2 = test system: KM-20L2
KM12 = test system: KM12
LOX IMVI = test system: LOX IMVI
LXFL 529 = test system: LXFL 529
M14 = test system: M14
M19-MEL = test system: M19-MEL
MOLT-4 = test system: MOLT-4
Malme-3M = test system: Malme-3M
NCI-H226 = test system: NCI-H226
NCI-H23 = test system: NCI-H23
NCI-H460 = test system: NCI-H460
NCI-H522 = test system: NCI-H522
OVCAR-3 = test system: OVCAR-3
OVCAR-4 = test system: OVCAR-4
OVCAR-5 = test system: OVCAR-5
OVCAR-8 = test system: OVCAR-8
RPMI-8226 = test system: RPMI-8226
RXF 393 = test system: RXF 393
RXF 631 = test system: RXF 631
SF-268 = test system: SF-268
SF-295 = test system: SF-295
SF-539 = test system: SF-539
SK-MEL-28 = test system: SK-MEL-28
SK-MEL-2 = test system: SK-MEL-2
SK-OV-3 = test system: SK-OV-3
SN12C = test system: SN12C
SNB-19 = test system: SNB-19
SNB-75 = test system: SNB-75
SR = test system: SR
SW-620 = test system: SW-620
TK-10 = test system: TK-10
U-251 = test system: U-251
UACC-257 = test system: UACC-257
UACC-62 = test system: UACC-62
UO-31 = test system: UO-31
XF498 = test system: XF498
A549 = test system: A549
CAKI-1 = test system: CAKI-1
DMS-273 = test system: DMS-273
EKVX = test system: EKVX
HOP-62 = test system: HOP-62
SK-MEL-5 = test system: SK-MEL-5
SNB-78 = test system: SNB-78

C=C=C(Sc1ccccc1)C(C)(C)O
GI50 (786-0): > 100 µM (inactive)
GI50 (A498): > 100 µM (inactive)
GI50 (ACHN): > 100 µM (inactive)
GI50 (CCRF-CEM): > 100 µM (inactive)
GI50 (COLO 205): > 100 µM (inactive)
GI50 (DLD-1): > 100 µM (inactive)
GI50 (DU-145): > 100 µM (inactive)
GI50 (HCC 2998): > 100 µM (inactive)
GI50 (HCT-116): > 100 µM (inactive)
GI50 (HCT-15): > 100 µM
GI50 (HL-60): > 100 µM (inactive)
GI50 (HOP-18): > 100 µM (inactive)
GI50 (HOP-92): > 100 µM (inactive)
GI50 (HT-29): > 100 µM (inactive)
GI50 (IGROV-1): > 100 µM (inactive)
GI50 (K562): > 100 µM (inactive)
GI50 (KM-20L2): > 100 µM (inactive)
GI50 (KM12): > 100 µM (inactive)
GI50 (LOX IMVI): > 100 µM (inactive)
GI50 (LXFL 529): > 100 µM (inactive)
GI50 (M14): > 100 µM (inactive)
GI50 (M19-MEL): > 100 µM (inactive)
GI50 (MOLT-4): > 100 µM (inactive)
GI50 (Malme-3M): > 100 µM (inactive)
GI50 (NCI-H226): > 100 µM (inactive)
GI50 (NCI-H23): > 100 µM (inactive)
GI50 (NCI-H460): > 100 µM (inactive)
GI50 (NCI-H522): 0.399 µM (active)
GI50 (OVCAR-3): > 100 µM (inactive)
GI50 (OVCAR-4): > 100 µM (inactive)
GI50 (OVCAR-5): > 100 µM (inactive)
GI50 (OVCAR-8): > 100 µM (inactive)
GI50 (RPMI-8226): > 100 µM (inactive)
GI50 (RXF 393): > 100 µM (inactive)
GI50 (RXF 631): > 100 µM (inactive)
GI50 (SF-268): > 100 µM (inactive)
GI50 (SF-295): > 100 µM (inactive)
GI50 (SF-539): > 100 µM (inactive)
GI50 (SK-MEL-28): > 100 µM (inactive)
GI50 (SK-MEL-2): > 100 µM (inactive)
GI50 (SK-OV-3): > 100 µM (inactive)
GI50 (SN12C): > 100 µM (inactive)
GI50 (SNB-19): > 100 µM (inactive)
GI50 (SNB-75): 38.6 µM (inactive)
GI50 (SR): > 100 µM (inactive)
GI50 (SW-620): > 100 µM (inactive)
GI50 (TK-10): > 100 µM (inactive)
GI50 (U-251): > 100 µM (inactive)
GI50 (UACC-257): > 100 µM (inactive)
GI50 (UACC-62): > 100 µM (inactive)
GI50 (UO-31): > 100 µM (inactive)
GI50 (XF498): > 100 µM (inactive)

CCOC(=O)N1N=NC2C3OC(C[C@@]3(C#N)OC(C)=O)[C@H]21 (some centres undefined)
GI50 (786-0): > 100 µM (inactive)
GI50 (A549): > 100 µM (inactive)
GI50 (ACHN): > 100 µM (inactive)
GI50 (CAKI-1): > 100 µM (inactive)
GI50 (CCRF-CEM): > 100 µM (inactive)
GI50 (COLO 205): > 100 µM (inactive)
GI50 (DLD-1): > 100 µM (inactive)
GI50 (DMS-273): > 100 µM (inactive)
GI50 (EKVX): > 100 µM (inactive)
GI50 (HCC 2998): > 100 µM (inactive)
GI50 (HCT-116): > 100 µM (inactive)
GI50 (HCT-15): > 100 µM
GI50 (HL-60): > 100 µM (inactive)
GI50 (HOP-18): > 100 µM (inactive)
GI50 (HOP-62): > 100 µM (inactive)
GI50 (HOP-92): > 100 µM (inactive)
GI50 (HT-29): > 100 µM (inactive)
GI50 (IGROV-1): > 100 µM (inactive)
GI50 (K562): > 100 µM (inactive)
GI50 (KM-20L2): > 100 µM (inactive)
GI50 (KM12): > 100 µM (inactive)
GI50 (LOX IMVI): > 100 µM (inactive)
GI50 (LXFL 529): > 100 µM (inactive)
GI50 (M14): > 100 µM (inactive)
GI50 (M19-MEL): > 100 µM (inactive)
GI50 (MOLT-4): > 100 µM (inactive)
GI50 (Malme-3M): > 100 µM (inactive)
GI50 (NCI-H226): > 100 µM (inactive)
GI50 (NCI-H23): > 100 µM (inactive)
GI50 (NCI-H460): > 100 µM (inactive)
GI50 (NCI-H522): > 100 µM (inactive)
GI50 (OVCAR-3): > 100 µM (inactive)
GI50 (OVCAR-4): > 100 µM (inactive)
GI50 (OVCAR-5): > 100 µM (inactive)
GI50 (OVCAR-8): > 100 µM (inactive)
GI50 (RPMI-8226): > 100 µM (inactive)
GI50 (RXF 393): > 100 µM (inactive)
GI50 (RXF 631): > 100 µM (inactive)
GI50 (SF-268): 51.9 µM (inactive)
GI50 (SF-295): > 100 µM (inactive)
GI50 (SF-539): > 100 µM (inactive)
GI50 (SK-MEL-28): > 100 µM (inactive)
GI50 (SK-MEL-2): > 100 µM (inactive)
GI50 (SK-MEL-5): > 100 µM (inactive)
GI50 (SK-OV-3): > 100 µM (inactive)
GI50 (SN12C): > 100 µM (inactive)
GI50 (SNB-19): > 100 µM (inactive)
GI50 (SNB-75): > 100 µM (inactive)
GI50 (SNB-78): > 100 µM (inactive)
GI50 (SR): > 100 µM (inactive)
GI50 (SW-620): > 100 µM (inactive)
GI50 (TK-10): > 100 µM (inactive)
GI50 (U-251): > 100 µM (inactive)
GI50 (UACC-257): > 100 µM (inactive)
GI50 (UACC-62): > 100 µM (inactive)
GI50 (UO-31): > 100 µM (inactive)
GI50 (XF498): > 100 µM (inactive)
